IC50 data for 31 molecules are collected here from patent publication US11292796B2 (SIGNAL PHARMACEUTICALS, LLC, priority 2008, dated 2022).

By IC50 is commonly meant the concentration needed to halve the response being measured.

T1 sequence (P42345 1360-2549 limits assumed): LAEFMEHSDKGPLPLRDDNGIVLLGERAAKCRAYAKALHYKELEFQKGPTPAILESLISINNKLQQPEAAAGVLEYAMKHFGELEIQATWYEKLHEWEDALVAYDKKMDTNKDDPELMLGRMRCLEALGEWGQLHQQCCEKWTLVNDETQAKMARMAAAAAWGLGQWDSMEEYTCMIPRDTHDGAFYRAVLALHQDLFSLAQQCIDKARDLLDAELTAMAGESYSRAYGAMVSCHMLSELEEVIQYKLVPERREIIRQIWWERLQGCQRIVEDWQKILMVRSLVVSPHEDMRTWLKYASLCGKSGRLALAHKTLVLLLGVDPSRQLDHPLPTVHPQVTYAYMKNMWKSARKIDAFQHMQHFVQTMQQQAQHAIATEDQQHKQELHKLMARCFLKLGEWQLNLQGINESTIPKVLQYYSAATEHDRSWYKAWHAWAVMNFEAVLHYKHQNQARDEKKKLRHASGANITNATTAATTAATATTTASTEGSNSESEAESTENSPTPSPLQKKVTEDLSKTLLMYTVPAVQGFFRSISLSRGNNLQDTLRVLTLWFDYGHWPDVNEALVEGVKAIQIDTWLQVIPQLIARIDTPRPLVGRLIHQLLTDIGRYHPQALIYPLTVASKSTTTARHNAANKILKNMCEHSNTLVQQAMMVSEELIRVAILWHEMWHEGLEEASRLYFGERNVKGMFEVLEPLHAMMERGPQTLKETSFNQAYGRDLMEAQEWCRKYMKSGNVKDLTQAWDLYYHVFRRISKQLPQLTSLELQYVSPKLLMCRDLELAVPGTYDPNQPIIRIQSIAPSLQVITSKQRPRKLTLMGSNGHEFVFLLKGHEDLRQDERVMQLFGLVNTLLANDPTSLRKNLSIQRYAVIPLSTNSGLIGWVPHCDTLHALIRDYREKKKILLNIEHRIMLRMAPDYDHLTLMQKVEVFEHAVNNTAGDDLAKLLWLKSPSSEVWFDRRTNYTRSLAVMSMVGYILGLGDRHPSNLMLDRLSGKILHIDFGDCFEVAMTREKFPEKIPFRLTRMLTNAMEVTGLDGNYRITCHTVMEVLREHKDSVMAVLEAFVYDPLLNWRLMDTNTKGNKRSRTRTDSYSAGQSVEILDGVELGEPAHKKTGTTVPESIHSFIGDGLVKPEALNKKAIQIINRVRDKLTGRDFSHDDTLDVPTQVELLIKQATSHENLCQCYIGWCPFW

This assay has as its target T1, mTOR (Homo sapiens, UniProt P42345).
T1 construct: purchased Invitrogen PR8683A
The experiment in a line: mTOR HTR-FRET assay. It counts as biochemical. As to conditions: read-out: Act. Level (IC50 in mTor HTR-FRET assay). As for the experimental part:
The following is an example of an assay that can be used to determine the mTOR inhibitory activity of a test compound. Heteroaryl Compounds were dissolved in DMSO and prepared as 10 mM stocks and diluted appropriately for the experiments. Reagents were prepared as follows:
“Simple TOR buffer” (used to dilute high glycerol TOR fraction): 10 mM Tris pH 7.4, 100 mM NaCl, 0.1% Tween-20, 1 mM DTT. Invitrogen mTOR (cat #PR8683A) was diluted in this buffer to an assay concentration of 0.200 μg/mL.
To 20 μL of the Simple mTor buffer is added 0.5 μL of test compound in DMSO. To initiate the reaction 5 μL of ATP/Substrate solution was added to 20 μL of the Simple TOR buffer solution (control) and to the compound solution prepared above.
As for `CO[C@H]1CC[C@H](CN2C(=O)CNc3ncc(-c4ccc(-c5nc[nH]n5)nc4)nc32)CC1` [Example 158, 7-(6-(1H-1,2,4-triazol-3-yl)pyridin-3-yl)-1-((trans-4-methoxycyclohexyl)methyl)-3,4-dihydropyrazino[2,3-b]pyrazin-2(1H)-one], the IC50 was 0.005 to 250 nM.

Take `CO[C@H]1CC[C@H](N2C(=O)CNc3ncc(-c4ccc(C(C)(C)O)cc4)nc32)CC1` [Example 233, 7-(4-(2-hydroxypropan-2-yl)phenyl)-1-(trans-4-methoxycyclohexyl)-3,4-dihydropyrazino[2,3-b]pyrazin-2(1H)-one]: the 50% inhibitory concentration (IC50) lay within 0.005 to 250 nM.

With `CO[C@H]1CC[C@H](CN2C(=O)CNc3ncc(-c4cnc(C(N)=O)cc4C)nc32)CC1` [Example 206, 5-(8-((trans-4-methoxycyclohexyl)methyl)-7-oxo-5,6,7,8-tetrahydropyrazino[2,3-b]pyrazin-2-yl)-4-methylpicolinamide], the concentration for half-maximal inhibition (IC50) lay within 1000 to 10000 nM.

As to `O=C1CN(C[C@H]2CCCO2)c2nc(-c3ccc(-c4nnc[nH]4)cc3)cnc2N1` [Example 67, (R)-6-(4-(4H-1,2,4-triazol-3-yl)phenyl)-4-((tetrahydrofuran-2-yl)methyl)-3,4-dihydropyrazino[2,3-b]pyrazin-2(1H)-one], the IC50 was 0.005 to 250 nM.

With `CO[C@H]1CC[C@H](CN2CC(=O)Nc3ncc(-c4ccc(-c5nc[nH]n5)nc4)nc32)CC1` [Example 5], the IC50 lay within 0.005 to 250 nM.

As for `O=C1CNc2ncc(-c3ccc(-c4nc[nH]n4)nc3)nc2N1C[C@H]1CC[C@@H](O)CC1` [Example 169, 7-(6-(1H-1,2,4-triazol-3-yl)pyridin-3-yl)-1-((cis-4-hydroxycyclohexyl)methyl)-3,4-dihydropyrazino[2,3-b]pyrazin-2(1H)-one], the IC50 lay within 0.005 to 250 nM.

`CC(C)(O)c1ccc(-c2cnc3c(n2)N([C@@H]2CCOC2)CC(=O)N3)cn1` [Example 129, (R)-6-(6-(2-hydroxypropan-2-yl)pyridin-3-yl)-4-(tetrahydrofuran-3-yl)-3,4-dihydropyrazino[2,3-b]pyrazin-2(1H)-one]: the IC50 was 500 to 1000 nM.

In the case of `Cc1cc(-c2nc[nH]n2)c(F)cc1-c1cnc2c(n1)N(C[C@H]1CC[C@H](O)CC1)C(=O)CN2` [Example 168, 7-(5-fluoro-2-methyl-4-(1H-1,2,4-triazol-3-yl)phenyl)-1-((trans-4-hydroxycyclohexyl)methyl)-3,4-dihydropyrazino[2,3-b]pyrazin-2(1H)-one], the IC50 is 0.005 to 250 nM.

Take `COCC(=O)N1CCN2c3nc(-c4ccc(-c5nnc[nH]5)cc4C)cnc3NC(=O)C2C1` (stereo not shown) [Example 96, 9-(4-(4H-1,2,4-triazol-3-yl)-2-methylphenyl)-3-(2-methoxyacetyl)-6,11,4a-trihydropiperazino[1,2-e]pyrazino[2,3-b]pyrazin-5-one]: the half-inhibitory concentration (IC50) is 0.005 to 250 nM.

Consider `Nc1cc(-c2cnc3c(n2)N(CCC2CCOCC2)C(=O)CN3)ccn1` [Example 183, 7-(2-aminopyridin-4-yl)-1-(2-(tetrahydro-2H-pyran-4-yl)ethyl)-3,4-dihydropyrazino[2,3-b]pyrazin-2(1H)-one], for which the IC50 was in the range of 500 to 1000 nM.

Turning to `CO[C@H]1CC[C@H](CN2C(=O)CNc3ncc(-c4cnc(-c5nc[nH]n5)cc4C)nc32)CC1` [Example 204, 1-((trans-4-methoxycyclohexyl)methyl)-7-(4-methyl-6-(1H-1,2,4-triazol-3-yl)pyridin-3-yl)-3,4-dihydropyrazino[2,3-b]pyrazin-2(1H)-one], the 50% inhibitory concentration (IC50) fell in the range of 0.005 to 250 nM.

Take `CC(C)(O)c1ccc(-c2cnc3c(n2)N(Cc2cccc(C(F)(F)F)c2)C(=O)CN3)cn1` [Example 258, 7-(6-(2-hydroxypropan-2-yl)pyridin-3-yl)-1-(3-(trifluoromethyl)benzyl)-3,4-dihydropyrazino[2,3-b]pyrazin-2(1H)-one]: the IC50 lay within 0.005 to 250 nM.

Regarding `NC(=O)c1ccc(-c2cnc3c(n2)N(CCC2CCOCC2)CC(=O)N3)cc1` [Example 70, 4-(6-oxo-8-(2-(tetrahydro-2H-pyran-4-yl)ethyl)-5,6,7,8-tetrahydropyrazino[2,3-b]pyrazin-2-yl)benzamide], the half-inhibitory concentration (IC50) lay within 1000 to 10000 nM.

As for `COCCN1C(=O)CNc2ncc(-c3cccc4[nH]ncc34)nc21` [Example 188, 7-(1H-indazol-4-yl)-1-(2-methoxyethyl)-3,4-dihydropyrazino[2,3-b]pyrazin-2(1H)-one], the 50% inhibitory concentration (IC50) was 1000 to 10000 nM.

Consider `COCCN1C(=O)CNc2ncc(-c3ccc(-c4nc[nH]n4)c(F)c3C)nc21` [Example 244, 7-(3-fluoro-2-methyl-4-(1H-1,2,4-triazol-3-yl)phenyl)-1-(2-methoxyethyl)-3,4-dihydropyrazino[2,3-b]pyrazin-2(1H)-one], for which the IC50 was in the range of 0.005 to 250 nM.

In the case of `CCN1CC(=O)Nc2ncc(-c3ccc(-c4nnc[nH]4)cc3)nc21` [Example 141, 6-(4-(4H-1,2,4-triazol-3-yl)phenyl)-4-ethyl-3,4-dihydropyrazino[2,3-b]pyrazin-2(1H)-one], the IC50 is 250 to 500 nM.

Regarding `Cc1cc(-c2nnc[nH]2)ccc1-c1cnc2c(n1)N1CCNCC1C(=O)N2` (stereo not shown) [Example 97, 9-(4-(4H-1,2,4-triazol-3-yl)-2-methylphenyl)-6,11,4a-trihydropiperazino[1,2-e]pyrazino[2,3-b]pyrazin-5-one], the concentration for half-maximal inhibition (IC50) was 0.005 to 250 nM.

For the molecule `CCN1C(=O)CNc2ncc(-c3cc(F)c(-c4nc[nH]n4)cc3C)nc21` [Example 177, 1-ethyl-7-(5-fluoro-2-methyl-4-(1H-1,2,4-triazol-3-yl)phenyl)-3,4-dihydropyrazino[2,3-b]pyrazin-2(1H)-one], the IC50 was in the range of 0.005 to 250 nM.

For the molecule `CCN1CC(=O)Nc2ncc(-c3cc(F)c(-c4nc[nH]n4)cc3C)nc21` [Example 26, 4-ethyl-6-(5-fluoro-2-methyl-4-(1H-1,2,4-triazol-3-yl)phenyl)-3,4-dihydropyrazino[2,3-b]pyrazin-2(1H)-one], the IC50 was in the range of 0.005 to 250 nM.

As for `CO[C@H]1CC[C@@H](N2CC(=O)Nc3ncc(-c4ccc(C#N)nc4C)nc32)CC1` [Example 94, 5-(8-(cis-4-methoxycyclohexyl)-6-oxo-5,6,7,8-tetrahydropyrazino[2,3-b]pyrazin-2-yl)-6-methylpicolinonitrile], the half-inhibitory concentration (IC50) lay within 1000 to 10000 nM.

On to `Cc1cc(-c2nnc[nH]2)ccc1-c1cnc2c(n1)N1CCN(C)CC1C(=O)N2` (stereo not shown) [Example 118, 9-(4-(4H-1,2,4-triazol-3-yl)-2-methylphenyl)-3-methyl-6,11,4a-trihydropiperazino[1,2-e]pyrazino[2,3-b]pyrazin-5-one], for which the IC50 fell in the range of 500 to 1000 nM.

Regarding `C[C@H](O)c1ccc(-c2cnc3c(n2)N(CCC2CCOCC2)C(=O)CN3)cn1` [Example 253, (S)-7-(6-(1-hydroxyethyl)pyridin-3-yl)-1-(2-(tetrahydro-2H-pyran-4-yl)ethyl)-3,4-dihydropyrazino[2,3-b]pyrazin-2(1H)-one], the 50% inhibitory concentration (IC50) lay within 0.005 to 250 nM.

Consider `O=C1CN(CC2CCOCC2)c2nc(-c3ccc(-c4nnc[nH]4)cc3)cnc2N1` [Example 142, 6-(4-(4H-1,2,4-triazol-3-yl)phenyl)-4-((tetrahydro-2H-pyran-4-yl)methyl)-3,4-dihydropyrazino[2,3-b]pyrazin-2(1H)-one], for which the IC50 lay within 0.005 to 250 nM.

With `CO[C@H]1CC[C@H](N2C(=O)CNc3ncc(-c4cnc(-c5nc[nH]n5)cc4C)nc32)CC1` [Example 202, 1-(trans-4-methoxycyclohexyl)-7-(4-methyl-6-(1H-1,2,4-triazol-3-yl)pyridin-3-yl)-3,4-dihydropyrazino[2,3-b]pyrazin-2(1H)-one], the concentration for half-maximal inhibition (IC50) was 0.005 to 250 nM.

Regarding `CO[C@H]1CC[C@H](N2C(=O)CNc3ncc(-c4ccc(C(C)(C)O)[n+]([O-])c4)nc32)CC1` [Example 198, 2-(2-hydroxypropan-2-yl)-5-(8-(trans-4-methoxycyclohexyl)-7-oxo-5,6,7,8-tetrahydropyrazino[2,3-b]pyrazin-2-yl)pyridine 1-oxide], the IC50 was in the range of 1000 to 10000 nM.

For the molecule `CO[C@H]1CC[C@@H](N2CC(=O)Nc3ncc(-c4ccc(C(C)(C)O)nc4)nc32)C1` [Example 51, 6-(6-(2-hydroxypropan-2-yl)pyridin-3-yl)-4-((1R,3S)-3-methoxycyclopentyl)-3,4-dihydropyrazino[2,3-b]pyrazin-2(1H)-one], the concentration for half-maximal inhibition (IC50) lay within 0.005 to 250 nM.

As for `O=C1CN(CCC2CCOCC2)c2nc(-c3ccc4[nH]ncc4c3)cnc2N1` [Example 69, 6-(1H-indazol-5-yl)-4-(2-(tetrahydro-2H-pyran-4-yl)ethyl)-3,4-dihydropyrazino[2,3-b]pyrazin-2(1H)-one], the half-inhibitory concentration (IC50) fell in the range of 250 to 500 nM.

For `O=C1Nc2ncc(-c3ccc(-c4nnc[nH]4)nc3)nc2N2CCOCC12` (stereo not shown) [Example 92, 9-(6-(4H-1,2,4-triazol-3-yl)-3-pyridyl)-6,11,4a-trihydromorpholino[4,3-e]pyrazino[2,3-b]pyrazin-5-one], the IC50 was in the range of 500 to 1000 nM.

For `Cc1cc(-c2nnc[nH]2)ccc1-c1cnc2c(n1)N(CCC1CCOCC1)C(C)(C)C(=O)N2` [Example 84, 3,3-dimethyl-6-(2-methyl-4-(4H-1,2,4-triazol-3-yl)phenyl)-4-(2-(tetrahydro-2H-pyran-4-yl)ethyl)-3,4-dihydropyrazino[2,3-b]pyrazin-2(1H)-one], the concentration for half-maximal inhibition (IC50) lay in the range of 0.005 to 250 nM.

For the molecule `Cc1cc(-c2cnc3c(n2)N(CCC2CCOCC2)CC(=O)N3)cc2[nH]cnc12` [Example 147, 6-(4-methyl-1H-benzo[d]imidazol-6-yl)-4-(2-(tetrahydro-2H-pyran-4-yl)ethyl)-3,4-dihydropyrazino[2,3-b]pyrazin-2(1H)-one], the half-inhibitory concentration (IC50) was in the range of 500 to 1000 nM.

Regarding `CC(C)(O)c1ccc(-c2cnc3c(n2)N(Cc2cccc(C#N)c2)C(=O)CN3)cn1` [Example 207, 3-((7-(6-(2-hydroxypropan-2-yl)pyridin-3-yl)-2-oxo-3,4-dihydropyrazino[2,3-b]pyrazin-1(2H)-yl)methyl)benzonitrile], the 50% inhibitory concentration (IC50) was in the range of 0.005 to 250 nM.
